Results as given in ChEMBL document CHEMBL2401653, “Synthesis, structure-property relationships and pharmacokinetic evaluation of ethyl 6-aminonicotinate sulfonylureas as antagonists of the P2Y₁₂ receptor” (Eur J Med Chem, 2013).

Legend:
[1] = Stability of the compound in MeCN assessed as compound remaining at room temperature; format: physicochemical
[2] = 1-octanol-phosphate buffer distribution coefficient, log D of the compound at pH 7.4 after 2 days by shake flask method; format: physicochemical
P2Y purinoceptor 12 [3] = target: T1, P2Y purinoceptor 12 (Homo sapiens, UniProt Q9H244)
T1 sequence (Q9H244 whole entry): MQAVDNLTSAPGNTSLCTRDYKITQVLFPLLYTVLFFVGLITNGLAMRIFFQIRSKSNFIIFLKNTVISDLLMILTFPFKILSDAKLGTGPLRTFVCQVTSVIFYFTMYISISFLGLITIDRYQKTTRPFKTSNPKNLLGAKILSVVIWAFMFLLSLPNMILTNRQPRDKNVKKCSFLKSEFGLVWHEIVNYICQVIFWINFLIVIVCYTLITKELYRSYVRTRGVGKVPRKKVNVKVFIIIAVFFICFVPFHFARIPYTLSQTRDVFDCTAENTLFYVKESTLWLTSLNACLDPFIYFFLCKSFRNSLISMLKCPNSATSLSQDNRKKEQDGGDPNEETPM

P2Y purinoceptor 12 [4] = target: T1, P2Y purinoceptor 12; remark: listed apart in the source
Description: Displacement of [125I]-AZ11931285 from P2Y12 receptor (unknown origin) after 1 hr by scintillation counting analysis

Liver microsomes [5] = assay: Intrinsic clearance in human liver microsomes at 1 umol/L by LC/MS analysis in presence of NADPH; format: ADME, Microsome; conditions: 1 µM
Liver microsomes [6] = assay: Intrinsic clearance in rat liver microsomes at 1 umol/L by LC/MS analysis in presence of NADPH; format: ADME, Microsome; conditions: 1 µM
[7] = Apparent Permeability across apical to basolateral side in human Caco2 cells at 1 to 10 uM measured at 30 to 90 mins by LC/MS analysis; format: ADME, cell-based; conditions: Caco-2
Liver microsomes [8] = assay: Metabolic stability in rat liver microsomes at 1 umol/L by LC/MS analysis in absence of NADPH; format: ADME, Microsome; conditions: 1 µM
Liver microsomes [9] = assay: Metabolic stability in human liver microsomes at 1 umol/L by LC/MS analysis in absence of NADPH; format: ADME, Microsome; conditions: 1 µM
[10] = Fraction unbound in human plasma; format: ADME, cell-free
[11] = Half life in po dosed rat; format: ADME, organism-based; conditions: in vivo
[12] = Oral bioavailability in rat; format: ADME, organism-based; conditions: in vivo
[13] = Half life in iv dosed rat; format: ADME, organism-based; conditions: in vivo
[14] = Clearance in iv dosed rat; format: ADME, organism-based; conditions: in vivo
Plasma = assay: Metabolic stability in rat plasma by HRMS analysis; format: ADME, cell-free

Structure (SMILES) | Stability [1] | logD at 48 h [2] | IC50 (P2Y purinoceptor 12 [3]) [nM] | IC50 (P2Y purinoceptor 12 [4]) [nM] | Intrinsic clearance (CLint) (Liver microsomes [5]) [µL/min/mg] | Intrinsic clearance (Liver microsomes [6]) [µL/min/mg] | Papp A→B at up to 10 µM [7] [×10⁻⁶ cm/s] | further results
CCOC(=O)c1cnc(N2CCN(C(=O)Nc3ccccc3)CC2)c(C#N)c1 | Stable | 3.7 | – | – | – | – | – | –
CCOC(=O)c1cnc(N2CCN(C(=O)Nc3ccccc3)CC2)c(Cl)c1 | Stable | – | – | – | – | – | – | –
CCOC(=O)c1cnc(N2CCN(C(=O)Nc3ccccc3C)CC2)c(Cl)c1 | Stable | – | – | – | – | – | – | –
CCOC(=O)c1cnc(N2CCN(C(=O)Nc3ccc(C)cc3)CC2)c(Cl)c1 | Stable | – | – | – | – | – | – | –
CCOC(=O)c1cc(C#N)c(N2CCN(C(=O)NCc3ccc(F)cc3)CC2)nc1C(F)(F)F | Stable | 5 | – | – | – | – | – | –
CCOC(=O)c1cc(C#N)c(N2CCCN(C(=O)NS(=O)(=O)c3ccc(Cl)s3)CC2)nc1C | Stable | 0.9 | 240 | 630 | – | – | – | –
CCOC(=O)c1cc(C#N)c(N2C[C@@H]3C[C@H]2CN3C(=O)NS(=O)(=O)c2ccc(Cl)s2)nc1C | Stable | – | 690 | 2900 | – | – | – | –
CCOC(=O)c1cc(C#N)c(N2CC3CN(C(=O)NS(=O)(=O)c4ccccc4)CC3C2)nc1C (configuration not stated) | Stable | 0.4 | 580 | 240 | < 13 | < 19 | 0.39 | –
COC(=O)c1cnc(N2CCN(C(=O)NS(=O)(=O)c3ccc(Cl)s3)CC2)c(Cl)c1 | Stable | 0.9 | 3200 | 650 | – | – | – | –
CCCOC(=O)c1cnc(N2CCN(C(=O)NS(=O)(=O)c3ccc(Cl)s3)CC2)c(Cl)c1 | Stable | 1.6 | 240 | 210 | – | – | – | –
CCCCOC(=O)c1cnc(N2CCN(C(=O)NS(=O)(=O)c3ccc(Cl)s3)CC2)c(Cl)c1 | Stable | 2.3 | 150 | 95 | > 70 | – | 0.5 | –
CC(C)OC(=O)c1cnc(N2CCN(C(=O)NS(=O)(=O)c3ccc(Cl)s3)CC2)c(Cl)c1 | Stable | 1.5 | 530 | 250 | > 70 | > 104 | – | –
CC(C)CCOC(=O)c1cnc(N2CCN(C(=O)NS(=O)(=O)c3ccc(Cl)s3)CC2)c(Cl)c1 | Stable | 2.7 | 110 | 140 | > 70 | – | 0.44 | –
CCCC(=O)c1cnc(N2CCN(C(=O)NS(=O)(=O)c3ccc(Cl)s3)CC2)c(Cl)c1 | Stable | 1.3 | 890 | 560 | – | > 104 | 0.16 | –
O=C(c1cnc(N2CCN(C(=O)NS(=O)(=O)c3ccc(Cl)s3)CC2)c(Cl)c1)C1CC1 | Stable | 1.2 | 1300 | 420 | < 13 | < 19 | 0.12 | –
CCCS(=O)(=O)c1cnc(N2CCN(C(=O)NS(=O)(=O)c3ccc(Cl)s3)CC2)c(Cl)c1 | Stable | – | 14000 | 9300 | – | – | – | –
CCOC(=O)c1ccc(N2CCN(C(=O)NS(=O)(=O)c3ccc(Cl)s3)CC2)c(Cl)c1 | Stable | 1.5 | 1800 | 660 | – | > 104 | – | –
C=C(NC(=O)N1CCN(c2ncc(C(=O)OCC)cc2Cl)CC1)c1ccccc1 | Stable | – | 1700 | 2400 | – | – | – | –
CCOC(=O)c1cc(C#N)c(N2CCN(C(=O)NS(=O)(=O)c3ccccc3)CC2)nc1C(F)(F)F | Stable | – | 220 | 170 | > 70 | > 104 | 0.6 | Stability (Liver microsomes [8]): Stable; Stability (Liver microsomes [9]): Stable
CCOC(=O)c1cc(C#N)c(N2CCN(C(=O)NS(=O)(=O)c3ccccc3C)CC2)nc1C(F)(F)F | Stable | – | 380 | 430 | – | – | – | –

Structure (SMILES) | Stability [1] | logD at 48 h [2] | IC50 (P2Y purinoceptor 12 [3]) [nM] | IC50 (P2Y purinoceptor 12 [4]) [nM] | Intrinsic clearance (CLint) (Liver microsomes [5]) [µL/min/mg] | Intrinsic clearance (Liver microsomes [6]) [µL/min/mg] | Papp A→B at up to 10 µM [7] [×10⁻⁶ cm/s] | further results
CCOC(=O)c1cc(C#N)c(N2CCN(C(=O)NS(=O)(=O)c3ccccc3Cl)CC2)nc1C(F)(F)F | Stable | – | 470 | 690 | – | – | – | –
CCOC(=O)c1cc(C#N)c(N2CCN(C(=O)NS(=O)(=O)c3ccc(Cl)cc3)CC2)nc1C(F)(F)F | Stable | – | 97 | 68 | > 70 | > 104 | 0.13 | –
CCOC(=O)c1cc(C#N)c(N2CCN(C(=O)NS(=O)(=O)c3ccc(F)cc3)CC2)nc1C(F)(F)F | Stable | 0.4 | 210 | 230 | – | > 104 | 0.053 | –
CCOC(=O)c1cnc(N2CCN(C(=O)NS(=O)(=O)c3ccccc3Cl)CC2)c(Cl)c1 | Stable | 0.6 | 990 | 870 | – | – | – | –
CCOC(=O)c1cnc(N2CCN(C(=O)NS(=O)(=O)c3ccc(F)cc3)CC2)c(Cl)c1 | Stable | 0.6 | 470 | 370 | > 70 | > 104 | 0.54 | –
CCOC(=O)c1cc(C#N)c(N2CC(NC(=O)NS(=O)(=O)c3ccccc3)C2)nc1C | Stable | 0.4 | 190 | 62 | < 13 | < 19 | 0.41 | fraction unbound [10]: < 0.015; half-life [11]: 9 h; bioavailability [12]: 39%; half-life [13]: 1.7 h; clearance [14]: 13 mL/min/kg; Stability (Plasma): Unstable
CCOC(=O)c1cc(C#N)c(N2CC(NC(=O)NS(=O)(=O)c3ccc(Cl)cc3)C2)nc1C | Stable | 1.1 | 78 | 86 | < 13 | – | 1.2 | –
CCOC(=O)c1cc(C#N)c(N2CC(NC(=O)NS(=O)(=O)Cc3ccccc3)C2)nc1C | Stable | 1.1 | 82 | 79 | – | – | 1.2 | fraction unbound [10]: < 0.015; half-life [11]: 1.3 h; bioavailability [12]: 3%; half-life [13]: 0.55 h; clearance [14]: 31 mL/min/kg; Stability (Plasma): Unstable
CCOC(=O)c1cc(C#N)c(N2CCC(NC(=O)NS(=O)(=O)c3ccc(Cl)s3)CC2)nc1C | Stable | 1.6 | 57 | 27 | > 70 | > 104 | 6.9 | –
CCOC(=O)c1cc(C#N)c(N2CCC(NC(=O)NS(=O)(=O)c3ccc(Cl)cc3)CC2)nc1C | Stable | 2.1 | 260 | 190 | > 70 | > 104 | 19 | –
CCOC(=O)c1cc(C#N)c(N2CCC(NC(=O)NS(=O)(=O)Cc3ccccc3)CC2)nc1C | Stable | 1.9 | 150 | 88 | – | > 104 | 30 | –
CCOC(=O)c1cc(C#N)c(N2CCN(C(=O)NS(=O)(=O)c3ccccc3)CC2)nc1C | Stable | – | 130 | 140 | – | – | 0.3 | Stability (Liver microsomes [8]): Stable; Stability (Liver microsomes [9]): Stable
CCOC(=O)c1cc(C#N)c(N2CCN(C(=O)NS(=O)(=O)Cc3ccccc3)CC2)nc1C | Stable | 0.9 | 54 | 33 | < 13 | > 104 | 0.37 | –
CCOC(=O)c1cnc(N2CCN(C(=S)Nc3ccccc3)CC2)c(Cl)c1 | Stable | – | 3700 | 12000 | – | – | – | –
CCOC(=O)c1cnc(N2CCN(C(=O)NC(=O)c3ccccc3)CC2)c(Cl)c1 | Stable | – | 5300 | 9900 | – | – | – | –
CCOC(=O)c1cnc(N2CCN(C(=S)NC(=O)c3ccccc3)CC2)c(Cl)c1 | Stable | – | 990 | 2400 | – | – | – | –
O=C(O)c1cnc(N2CCN(C(=O)NS(=O)(=O)c3ccccc3)CC2)c(Cl)c1 | Stable | < 0.5 | – | > 33000 | – | – | – | –
CCOC(=O)c1cc(C#N)c(N2CCN(C(=O)NS(=O)(=O)c3ccc(Cl)s3)C(CCC(=O)O)C2)nc1C(F)(F)F (racemic) | Stable | – | 110 | 95 | < 13 | > 104 | 0.19 | fraction unbound [10]: < 0.015; half-life [11]: 4 h; bioavailability [12]: 0.83%; half-life [13]: 0.62 h; clearance [14]: 46 mL/min/kg; Stability (Plasma): Unstable
CCOC(=O)c1cc(C#N)c(N2CCN(C(=O)NS(=O)(=O)c3ccc(Cl)s3)CC2C)nc1C (racemic) | Stable | 1.6 | 37 | 64 | > 70 | > 104 | 0.31 | –
